From ChEMBL document CHEMBL4622865, “Sulfonamide-based 4-anilinoquinoline derivatives as novel dual Aurora kinase (AURKA/B) inhibitors: Synthesis, biological evaluation and in silico insights” (Bioorg Med Chem, 2020)

What was measured:
T47D = assay: Antitumor activity against human T47D cells assessed as growth inhibition at 10-'5 M incubated for 48 hrs by SRB assay relative to control; assay type: functional
SNB-75 = assay: Antitumor activity against human SNB75 cells assessed as growth inhibition at 10-'5 M incubated for 48 hrs by SRB assay relative to control; assay type: functional
MCF7 = assay: Antitumor activity against human MCF7 cells assessed as growth inhibition at 10-'5 M incubated for 48 hrs by SRB assay relative to control; assay type: functional
Aurora kinase B [1] = target: T1, Aurora kinase B (Homo sapiens, UniProt Q96GD4); assay: Inhibition of human Aurora B using [H-LRRASLG] as substrate at 20 uM in presence of [gamma-33P]-ATP incubated for 2 hrs by hotspot kinase assay relative to control
UACC-62 = assay: Antitumor activity against human UACC62 cells assessed as growth inhibition at 10-'5 M incubated for 48 hrs by SRB assay relative to control; assay type: functional
CAKI-1 = assay: Antitumor activity against human CAKI-1 cells assessed as growth inhibition at 10-'5 M incubated for 48 hrs by SRB assay relative to control; assay type: functional
MDA-MB-231 = assay: Antitumor activity against human MDA-MB-231 cells assessed as growth inhibition at 10-'5 M incubated for 48 hrs by SRB assay relative to control; assay type: functional
SK-MEL-5 = assay: Antitumor activity against human SK-MEL-5 cells assessed as growth inhibition at 10-'5 M incubated for 48 hrs by SRB assay relative to control; assay type: functional
KM12 = assay: Antitumor activity against human KM12 cells assessed as growth inhibition at 10-'5 M incubated for 48 hrs by SRB assay relative to control; assay type: functional
UO-31 = assay: Antitumor activity against human UO31 cells assessed as growth inhibition at 10-'5 M incubated for 48 hrs by SRB assay relative to control; assay type: functional
Hs-578T = assay: Antitumor activity against human Hs 578T cells assessed as growth inhibition at 10-'5 M incubated for 48 hrs by SRB assay relative to control; assay type: functional
MOLT-4 = assay: Antitumor activity against human MOLT4 cells assessed as growth inhibition at 10-'5 M incubated for 48 hrs by SRB assay relative to control; assay type: functional
A498 = assay: Antitumor activity against human A498 cells assessed as growth inhibition at 10-'5 M incubated for 48 hrs by SRB assay relative to control; assay type: functional
HOP-62 = assay: Antitumor activity against human HOP62 cells assessed as growth inhibition at 10-'5 M incubated for 48 hrs by SRB assay relative to control; assay type: functional
IGROV-1 = assay: Antitumor activity against human IGROV1 cells assessed as growth inhibition at 10-'5 M incubated for 48 hrs by SRB assay relative to control; assay type: functional
[2] = target: T2, Aurora kinase A (Homo sapiens) (UniProt O14965); assay: Inhibition of human Aurora A using [H-LRRASLG] as substrate at 20 uM in presence of [gamma-33P]-ATP incubated for 2 hrs by hotspot kinase assay relative to control
T2 sequence (whole entry): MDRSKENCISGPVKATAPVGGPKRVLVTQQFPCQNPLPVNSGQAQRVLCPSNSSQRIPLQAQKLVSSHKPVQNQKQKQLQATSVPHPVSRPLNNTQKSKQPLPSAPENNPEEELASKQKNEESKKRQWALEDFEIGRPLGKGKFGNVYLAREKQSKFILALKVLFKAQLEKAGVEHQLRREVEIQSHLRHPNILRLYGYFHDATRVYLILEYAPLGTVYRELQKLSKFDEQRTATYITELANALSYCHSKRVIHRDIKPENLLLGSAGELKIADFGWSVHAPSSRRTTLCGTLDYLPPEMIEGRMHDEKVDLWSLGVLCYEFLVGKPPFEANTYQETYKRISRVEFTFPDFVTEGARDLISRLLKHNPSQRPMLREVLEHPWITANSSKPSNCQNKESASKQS

NCI-H522 = assay: Antitumor activity against human NCI-H522 cells assessed as growth inhibition at 10-'5 M incubated for 48 hrs by SRB assay relative to control; assay type: functional
NCI/ADR-RES = assay: Antitumor activity against human NCI-ADR-RES cells assessed as growth inhibition at 10-'5 M incubated for 48 hrs by SRB assay relative to control; assay type: functional
HCT-15 = assay: Antitumor activity against human HCT15 cells assessed as growth inhibition at 10-'5 M incubated for 48 hrs by SRB assay relative to control; assay type: functional
Aurora kinase B [3] = target: T1, Aurora kinase B; assay: Inhibition of human Aurora B using [H-LRRASLG] as substrate in presence of [gamma-33P]-ATP incubated for 2 hrs by hotspot kinase assay
EKVX = assay: Antitumor activity against human EKVX cells assessed as growth inhibition at 10-'5 M incubated for 48 hrs by SRB assay relative to control; assay type: functional
Aurora kinase A = target: T3, Aurora kinase A (Homo sapiens, UniProt O14965); assay: Inhibition of human Aurora A using [H-LRRASLG] as substrate in presence of [gamma-33P]-ATP incubated for 2 hrs by hotspot kinase assay
T3 sequence (O14965 whole entry): T2 sequence (whole entry)

Homo sapiens = species on record: Homo sapiens; assay: Selectivity ratio of IC50 for inhibition of human AURKB to IC50 for inhibition of human AURKA
786-0 = assay: Antitumor activity against human 786-O cells assessed as growth inhibition at 10-'5 M incubated for 48 hrs by SRB assay relative to control; assay type: functional
HCT-116 = assay: Antitumor activity against human HCT116 cells assessed as growth inhibition at 10-'5 M incubated for 48 hrs by SRB assay relative to control; assay type: functional
M14 = assay: Antitumor activity against human M14 cells assessed as growth inhibition at 10-'5 M incubated for 48 hrs by SRB assay relative to control; assay type: functional

T1 sequence (Q96GD4 whole entry): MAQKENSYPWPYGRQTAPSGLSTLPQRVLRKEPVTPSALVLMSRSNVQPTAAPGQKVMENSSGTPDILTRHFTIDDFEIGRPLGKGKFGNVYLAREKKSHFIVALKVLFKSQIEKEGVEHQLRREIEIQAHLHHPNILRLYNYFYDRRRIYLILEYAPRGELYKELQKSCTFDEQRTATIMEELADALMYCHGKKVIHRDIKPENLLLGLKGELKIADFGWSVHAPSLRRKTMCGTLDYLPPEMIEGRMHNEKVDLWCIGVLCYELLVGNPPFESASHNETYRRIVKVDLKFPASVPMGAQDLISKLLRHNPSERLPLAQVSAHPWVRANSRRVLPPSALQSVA

CCOC(=O)c1cnc2ccccc2c1Nc1cccc(S(=O)(=O)NC)c1
growth inhibition (GI) (T47D): >=20% | growth inhibition (GI) (SNB-75): >=20% | growth inhibition (GI) (MCF7): >=20% | inhibition (Aurora kinase B [1]): 33.7% | growth inhibition (GI) (UACC-62): >=20% | growth inhibition (GI) (CAKI-1): >=20% | growth inhibition (GI) (MDA-MB-231): >=20% | growth inhibition (GI) (SK-MEL-5): >=20% | growth inhibition (GI) (KM12): >=20% | growth inhibition (GI) (UO-31): >=20% | growth inhibition (GI) (Hs-578T): >=20% | growth inhibition (GI) (MOLT-4): >=20% | growth inhibition (GI) (A498): >=20% | growth inhibition (GI) (HOP-62): >=20% | growth inhibition (GI) (IGROV-1): >=20% | inhibition [2]: 6.15%

CCOC(=O)c1cnc2ccc(C)cc2c1Nc1cccc(S(=O)(=O)NC)c1
inhibition (Aurora kinase B [1]): 18.7% | inhibition [2]: 6.43%

CCOC(=O)c1cnc2ccc(Br)cc2c1Nc1cccc(S(=O)(=O)NC)c1
growth inhibition (GI) (NCI-H522): >=20% | growth inhibition (GI) (NCI/ADR-RES): >=20% | inhibition (Aurora kinase B [1]): 21.4% | growth inhibition (GI) (UO-31): >=20% | growth inhibition (GI) (A498): >=20% | growth inhibition (GI) (HCT-15): >=20% | inhibition [2]: 10.7%

CCOC(=O)c1cnc2ccc(C)cc2c1Nc1cccc(NS(C)(=O)=O)c1
IC50 (Aurora kinase B [3]): 2.99 µM | inhibition (Aurora kinase B [1]): 81% | growth inhibition (GI) (KM12): >50% | growth inhibition (GI) (EKVX): >=20% | IC50 (Aurora kinase A): 0.98 µM | inhibition [2]: 64.4% | Ratio IC50 (Homo sapiens): 3

CCOC(=O)c1cnc2ccccc2c1Nc1cccc(NS(C)(=O)=O)c1
IC50 (Aurora kinase B [3]): 13.2 µM | inhibition (Aurora kinase B [1]): 56.6% | growth inhibition (GI) (786-0): >=20% | growth inhibition (GI) (HCT-116): >50% | IC50 (Aurora kinase A): 13.4 µM | growth inhibition (GI) (M14): >50% | inhibition [2]: 71.9%
